Assay results: ChEMBL document CHEMBL1681684, “Structure based design of heat shock protein 90 inhibitors acting as anticancer agents” (Bioorg Med Chem, 2011)

Legend:
[1] = test system: SK-MEL-2; test: Anticancer activity against human SK-MEL-2 cells by MTT assay; type: functional, cell-based
[2] = test system: SK-OV-3; test: Anticancer activity against human SKOV3 cells by MTT assay; type: functional, cell-based
[3] = test system: SK-OV-3; test: Anticancer activity against human SKOV3 cells assessed as growth inhibition at 100 uM by MTT assay; type: functional
[4] = test system: DU-145; test: Anticancer activity against human DU145 cells assessed as growth inhibition at 100 uM by MTT assay; type: functional
[5] = test system: HT-29; test: Anticancer activity against human HT-29 cells by MTT assay; type: functional, cell-based
[6] = test system: SK-MEL-2; test: Anticancer activity against human SK-MEL-2 cells assessed as growth inhibition at 100 uM by MTT assay; type: functional
[7] = test system: A549; test: Anticancer activity against human A549 cells assessed as growth inhibition at 100 uM by MTT assay; type: functional
[8] = test system: A549; test: Anticancer activity against human A549 cells by MTT assay; type: functional, cell-based
[9] = test system: DU-145; test: Anticancer activity against human DU145 cells by MTT assay; type: functional, cell-based
[10] = test system: HT-29; test: Anticancer activity against human HT-29 cells assessed as growth inhibition at 100 uM by MTT assay; type: functional
[11] = test system: MCF7; test: Anticancer activity against human MCF7 cells by MTT assay; type: functional, cell-based
[12] = test system: DU-145; test: Anticancer activity against human DU145 cells assessed as growth inhibition at 10 uM by MTT assay; type: functional
[13] = test system: SK-MEL-2; test: Anticancer activity against human SK-MEL-2 cells assessed as growth inhibition at 10 uM by MTT assay; type: functional
[14] = test system: HT-29; test: Anticancer activity against human HT-29 cells assessed as growth inhibition at 10 uM by MTT assay; type: functional

| Structure (SMILES) | IC50 [1] | IC50 [2] | IC50 [5] | IC50 [8] | IC50 [9] | IC50 [11] | inhibition at 100 µM [3] | inhibition at 100 µM [4] | inhibition at 100 µM [6] | inhibition at 100 µM [7] | inhibition at 100 µM [10] | inhibition at 10 µM [12] | inhibition at 10 µM [13] | inhibition at 10 µM [14] |
| --- | --- | --- | --- | --- | --- | --- | --- | --- | --- | --- | --- | --- | --- | --- |
| O=S(=O)(NCCc1c[nH]c2ccc(F)cc12)c1ccc(Br)cc1OC(F)(F)F | 45.8 µM | > 100 µM | 33.4 µM | 55 µM | 39.4 µM | – | 22.5% | 44.4% | 34% | 43.5% | 63.5% | – | – | – |
| COc1ccccc1N/N=C1/C(=O)N(C(N)=S)N=C1c1ccccc1 | 34.9 µM | 76 µM | 48.5 µM | 45.2 µM | 46.8 µM | – | 45.5% | 48% | 61% | 51.9% | 38% | – | – | – |
| O=S(=O)(NCCC(c1ccccc1)c1ccccc1)c1ccc(Cl)cc1 | 18.9 µM | 35 µM | 18.8 µM | 30.9 µM | 26.1 µM | – | 62% | 73.5% | 77.8% | 65.7% | 87.5% | – | – | – |
| CCC(C)(C)c1ccc(O)c(NS(=O)(=O)c2ccccc2OC(F)(F)F)c1 | 53.6 µM | 38.8 µM | 24.1 µM | 38.8 µM | > 100 µM | – | 46.4% | 60.1% | 52.4% | 50.9% | 37.5% | – | – | – |
| COc1cc(C2N(c3ccc(C)cc3)CCN2c2ccc(C)cc2)ccc1O | 32.9 µM | > 100 µM | 27.6 µM | 27.6 µM | 43.1 µM | – | 34.3% | 40.7% | 58.3% | 51.9% | 64.8% | – | – | – |
| O[C@H]1CCN(c2nc(Nc3cccc4c3CCCC4)c3ccccc3n2)C1 | 15.9 µM | 16.8 µM | 7.12 µM | 12.9 µM | 16.8 µM | – | 89.5% | 88.7% | 79.5% | 88.8% | 86.1% | – | – | – |
| O=S(=O)(Nc1ccccc1Oc1ccc(Cl)cc1Cl)c1ccccc1 | 44.2 µM | > 100 µM | 65.1 µM | 35.5 µM | 44 µM | – | 40.1% | 52.6% | 43.9% | 55% | 51.1% | – | – | – |
| O=[N+]([O-])c1cccnc1Sc1ccccc1NS(=O)(=O)c1ccc(Cl)cc1Cl | 42.3 µM | 70 µM | 63.1 µM | 26 µM | 53.9 µM | – | 44% | 54.5% | 40.1% | 47.9% | 44.6% | – | – | – |

Now from value to compound, other results behind:

| IC50 [1] | IC50 [2] | IC50 [5] | IC50 [8] | IC50 [9] | IC50 [11] | Structure (SMILES) | inhibition at 100 µM [3] | inhibition at 100 µM [4] | inhibition at 100 µM [6] | inhibition at 100 µM [7] | inhibition at 100 µM [10] | inhibition at 10 µM [12] | inhibition at 10 µM [13] | inhibition at 10 µM [14] |
| --- | --- | --- | --- | --- | --- | --- | --- | --- | --- | --- | --- | --- | --- | --- |
| 47.1 µM | 61.6 µM | 40.7 µM | 33.2 µM | 30.6 µM | – | Oc1ccc(C2=Nc3ccccc3S[C@H](c3ccccc3)C2)cc1 | 51.6% | 59.9% | 57.1% | 55.8% | 67.9% | – | – | – |
| 5.14 µM | 14.6 µM | 4.1 µM | 13.3 µM | 12.6 µM | – | C[C@H](Nc1nc(N2CCNCC2)nc2ccccc12)c1ccccc1 | 86.6% | 87.2% | 85.6% | 90.2% | 86.5% | – | – | – |
| – | – | 0.902 µM | – | 24.5 µM | 7.25 µM | COc1ccc(Nc2nc(NCc3ccco3)c3ccccc3n2)cc1 | 92.5% | – | 89.3% | – | 90.9% | 28.7% | 22.8% | 64.2% |
| – | – | 14 µM | – | 22.7 µM | – | Oc1ccc(Nc2nc(NCc3ccco3)c3ccccc3n2)cc1 | 92.3% | – | 86.2% | – | 93.3% | 30.3% | 39% | 67.6% |
| – | – | 15.8 µM | – | 22.6 µM | – | Oc1cccc(Nc2nc(NCc3ccccc3)c3ccccc3n2)c1 | 85.5% | – | 78.9% | – | 81.9% | 35% | 46.7% | 61.3% |
| – | – | 8.72 µM | – | > 50 µM | – | CN(C)CCNc1nc(-c2ccc(C(C)(C)C)cc2)nc2ccccc12 | 92.3% | – | 89.6% | – | 93.4% | 86.5% | 91.5% | 89.8% |
| – | – | 2.41 µM | – | 23.4 µM | – | Fc1ccc(Nc2nc(NCc3ccccc3)c3ccccc3n2)cc1 | 91.3% | – | 89.9% | – | 93.4% | 38.2% | 69.9% | 74.4% |
| – | – | 10.1 µM | – | 19.7 µM | – | Cc1cccc(Nc2nc(NCc3ccco3)c3ccccc3n2)c1 | 93.3% | – | 78.7% | – | 93.6% | 53.7% | 77.6% | 77.9% |
| – | – | 13.4 µM | – | 21.3 µM | – | COc1ccc(Nc2nc(NCc3ccccc3)c3ccccc3n2)cc1 | 92.3% | – | 89.3% | – | 92.9% | 52.2% | 81.2% | 80.7% |
| – | – | 16.5 µM | – | 19.2 µM | – | CCOc1ccc(Nc2nc(NCc3ccccc3)c3ccccc3n2)cc1 | 91.8% | – | 88% | – | 92.9% | 58% | 91.6% | 83.3% |
